# In patent US20200190062A1, “HETEROCYCLIC COMPOUND AND PHARMACEUTICAL COMPOSITION COMPRISING SAME” (BEYONDBIO INC., priority 2015, published 2020):
# Counter-ions that a name gives are not always drawn.
# Assays:
# [1] = test system: Human glioblastoma U-87MG cell line; test: Tumor growth inhibition by combined administration in an animal model (U-87MG xenograft); settings: oral daily for 30 days; for tumor growth inhibition: vs vehicle control
# Method: Human glioblastoma U-87MG cell line of 5×10^6 cells/0.1 ml PBS was injected subcutaneously into the right flank of a Balb/c nude mouse. When a tumor grew to 150 mm^3, 5 mice were assigned for each group so that tumor sizes of all groups are consistent and a test compound was orally administered daily. Tumor size was measured three times a week using Caliper. […] For the combined administration, TMZ was orally administered daily for the first 5 days. For the single administration, the compound of Example 61 was orally administered daily for 30 days. For the combined administration, the compound of Example 61 was administered orally daily for 34 days. 20% propylene glycol (PG) was used as a vehicle control. Tumor size (volume) was calculated from the tumor length measured in each animal using the following Equation 1.
# Tumor volume=(length of major axis×length of minor axis)/2 [Equation 1]
# [2] = test system: Human colon carcinoma HCT116 cell line; test: Tumor growth inhibition in an animal model (HCT116 xenograft); assay type: in vivo, Balb/c nude mouse; settings: oral daily for 12 days; for tumor growth inhibition: vs vehicle control
# Method: Tumor size was measured twice a week using Caliper. […] A vehicle control was 20% propylene glycol (PG) and a positive control was Xeloda at 100 mg/kg.
# [3] = test system: human colon carcinoma cell line HCT116; test: Cell cycle change by flow cytometry, cancer cells; assay type: cell-based; settings: 24 hrs
# Method: (§1) A human colon carcinoma cell line HCT116 and a human normal lung cell line MRC5 were cultured in DMEM medium containing 10% FBS. Each cultured cells were harvested, placed in 6 well plate at 1×10^6 cells/well, and cultured at 5% CO2 and 37° C. for 16 hrs. The compounds of the above Examples at 75 nM and 150 nM in DMEM containing 5% FBS were added to the cells in each well, and after 24 hrs a change in the cell cycle was analyzed using a flow cytometry. Media of treatment groups and a control group were removed, trypsin was added to isolate cells from the plates and the cells were centrifuged at 1000 g for 3 min. The isolated cells were washed with a cold phosphate buffer (PBS) two times. Afterwards, 1 ml of 70% ethanol was added to the cells and the cells were maintained at 4° C. for 30 min or more to fix the cells. The fixed cells were centrifuged at 1000 g for 3 min to remove ethanol, and washed with phosphate buffer (PBS) two times to remove ethanol completely. The washed cells were suspended in 250 ul of PBS, 6.25 ul of 10 mg/ml RNaseA was added to the suspension and reacted for 15 min at room temperature to degrade all RNA. 12.5 ul of 1 mg/ml propidium iodide (PI, sigma) was added to stain intracellular DNA. The cell cycles of 10,000 stained cells were measured using FACS calibur (Becton-Dickinson, USA) and cell numbers present in G1, S and G2/M phases were calculated as percentage using a cell cycle analysis program. Tables 3 and 4 show the results of cell cycle analysis for the compound obtained in Example 1 in cancer cells and normal cells, respectively.
# [4] = test system: human normal lung cell line MRC5; test: Cell cycle change by flow cytometry, normal cells; assay type: cell-based; settings: 24 hrs
# Method: as §1
# Aβ (amyloid β protein) = test: Inhibition of Aβ generation in B103/APP cells (Aβ42 ELISA); assay type: cell-based; settings: Rattus norvegicus, 72 hrs
# Method: The APP gene was inserted into B103 cells so that APP could be stably expressed and the resulting B103/APP cells were used to confirm inhibition of APP phosphorylation and Aβ generation.
# Further, to confirm whether Aβ generation is reduced due to APP phosphorylation inhibition, 5×10^5 B103/APP cells were cultured in a 6-well plate for 16 hrs. Afterwards, the compounds obtained in the above Examples were added at 100 nM, 75 nM, 50 nM, 25 nM, 12.5 nM to a medium containing 500 ug/ml of G418 and 0.5% FBS and incubated for 72 hrs. After 72 hrs, the amount of Aβ was quantified using the medium by Human Aβ42 ELISA kit (Invitrogen).
smiles,measurement,setting,value
"Nc1nccc(-c2ccc(O)c(-c3ccnc(N)n3)n2)n1 [Example 61, 2,6-bis(2-aminopyrimidin-4-yl)pyridin-3-ol 3hydrochloride]",Tumor size,[1]; 15 mpk alone,3503.3 ± 674.9 mm^3
same,tumor growth inhibition,[1]; 15 mpk alone,16.8%
same,Tumor size,[1]; 30 mpk alone,2015.0 ± 1023 mm^3
same,tumor growth inhibition,[1]; 30 mpk alone,52.2%
same,Tumor size,[2]; 1 mpk,1082.4 ± 994.6 mm^3
same,tumor growth inhibition,[2]; 1 mpk,41.3%
same,Tumor size,[2]; 3 mpk,773.7 ± 253.9 mm^3
same,tumor growth inhibition,[2]; 3 mpk,58.0%
same,Tumor size,[2]; 10 mpk,647.4 ± 462.1 mm^3
same,tumor growth inhibition,[2]; 10 mpk,64.9%
same,Tumor size,[2]; 30 mpk,403.4 ± 224.1 mm^3
same,tumor growth inhibition,[2]; 30 mpk,78.1%
"Nc1nccc(-c2ccc(O)c(-c3ccnc(N)n3)n2)n1 [Example 1, 2,6-bis(2-aminopyrimidin-4-yl)pyridin-3-ol]",G1 (cell numbers as percentage),"[3]; HCT116, 75 nM",22.3%
same,G2/M (cell numbers as percentage),"[3]; HCT116, 75 nM",51.5%
same,Polyploidy (cell numbers as percentage),"[3]; HCT116, 75 nM",16.3%
same,S (cell numbers as percentage),"[3]; HCT116, 75 nM",5.3%
same,Sub-G1 (cell numbers as percentage),"[3]; HCT116, 75 nM",4.9%
same,G1 (cell numbers as percentage),"[3]; HCT116, 150 nM",4.3%
same,G2/M (cell numbers as percentage),"[3]; HCT116, 150 nM",54.4%
same,Polyploidy (cell numbers as percentage),"[3]; HCT116, 150 nM",23.3%
same,S (cell numbers as percentage),"[3]; HCT116, 150 nM",2.6%
same,Sub-G1 (cell numbers as percentage),"[3]; HCT116, 150 nM",5.8%
same,G1 (cell numbers as percentage),"[4]; MRC5, 75 nM",50.7%
same,G2/M (cell numbers as percentage),"[4]; MRC5, 75 nM",22.8%
same,Polyploidy (cell numbers as percentage),"[4]; MRC5, 75 nM",8.8%
same,S (cell numbers as percentage),"[4]; MRC5, 75 nM",9.1%
same,Sub-G1 (cell numbers as percentage),"[4]; MRC5, 75 nM",8.8%
same,G1 (cell numbers as percentage),"[4]; MRC5, 150 nM",44.0%
same,G2/M (cell numbers as percentage),"[4]; MRC5, 150 nM",26.6%
same,Polyploidy (cell numbers as percentage),"[4]; MRC5, 150 nM",10.2%
same,S (cell numbers as percentage),"[4]; MRC5, 150 nM",6.8%
same,Sub-G1 (cell numbers as percentage),"[4]; MRC5, 150 nM",12.8%
"Cc1cc(-c2nc(-c3ccnc(N)c3F)ccc2O)nc(N)n1 [Example 71, 2′-amino-6-(2-amino-6-methylpyrimidin-4-yl)-3′-fluoro-[2,4′-bipyridin]-5-ol 3hydrochloride]",inhibition at 0.0125 µM,Aβ (amyloid β protein); 12.5 nM,37.6%
same,inhibition at 0.025 µM,Aβ (amyloid β protein); 25 nM,36.2%
same,inhibition at 0.05 µM,Aβ (amyloid β protein); 50 nM,46.7%
same,inhibition at 0.075 µM,Aβ (amyloid β protein); 75 nM,76.8%
same,inhibition at 0.1 µM,Aβ (amyloid β protein); 100 nM,100%
